Where two headings read alike, the source gives them in different places.

The test system of experiment [1] is Arabidopsis thaliana seedlings (WT Col-0, overexpressing lines, receptor mutants). The settings on record: pyr1 pyl1 double mutant ref 36; cited from earlier work.
The subject of experiment [2] is Arabidopsis thaliana seeds (WT Col-0, CsPYL1 and CsPYL1^5m lines). Kind of experiment: Seed germination assay. Type of experiment: in vivo. The settings on record: Arabidopsis thaliana. As for the experimental part: For seed germination assays, seeds were stratified in the dark at 4°C for 3 days. Approximately 100 seeds of each genotype were sown on MS plates supplemented with six different ligand concentrations. The experiments were repeated three times. To score seed germination, radical emergence was analyzed at 24 hours after sowing.

In experiment [3] the test system is Nicotiana benthamiana WT plants. The experiment in a line: IR thermography of leaf temperature, N. benthamiana. The experiment is classed as in vivo. The settings on record: nontransformed leaves, 24 hours after spraying, 50 μM ABA or 100 μM iSB07 or iSB09, compared to mock. The method, then:
IR images were taken using a FLIR […] thermocamera 1 day after the treatment (for N. benthamiana) or 2 and 5 days (for S. lycopersicum). Quantification was performed using the FLIR tools software on fully expanded leaves by analyzing 10 sections per leaf. At least six plants per genotype and treatment were analyzed in each experiment. Experiments were repeated twice. The average plant temperature ± SD of all the plants for each treatment and genotype was calculated and used to report the increase in temperature produced by each treatment. Statistical comparisons among genotypes were performed by either pairwise t tests or one-way ANOVA.

In experiment [4] the target is T1, ABI1 with AtPYR1 (Arabidopsis thaliana, UniProt O49686).
T1 construct: His; made in house
T1 sequence (O49686 whole entry): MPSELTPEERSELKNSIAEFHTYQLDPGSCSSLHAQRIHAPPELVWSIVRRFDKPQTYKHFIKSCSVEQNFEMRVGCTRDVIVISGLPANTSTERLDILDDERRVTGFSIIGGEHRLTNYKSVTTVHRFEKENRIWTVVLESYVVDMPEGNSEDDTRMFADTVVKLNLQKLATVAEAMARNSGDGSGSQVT
T1 sequence (P49597 whole entry partner): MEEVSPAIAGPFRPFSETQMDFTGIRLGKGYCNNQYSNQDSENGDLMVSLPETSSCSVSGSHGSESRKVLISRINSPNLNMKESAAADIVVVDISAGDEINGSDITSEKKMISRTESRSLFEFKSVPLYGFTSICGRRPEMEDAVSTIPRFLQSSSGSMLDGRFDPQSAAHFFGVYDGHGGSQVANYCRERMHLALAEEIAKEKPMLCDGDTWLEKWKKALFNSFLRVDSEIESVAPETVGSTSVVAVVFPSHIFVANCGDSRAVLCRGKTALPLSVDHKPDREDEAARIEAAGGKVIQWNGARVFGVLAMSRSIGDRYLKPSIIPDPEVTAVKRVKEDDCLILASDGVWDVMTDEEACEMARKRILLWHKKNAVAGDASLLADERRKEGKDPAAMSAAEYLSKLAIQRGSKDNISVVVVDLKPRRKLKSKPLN
Kind of experiment: PP2C inhibition assay, ABI1 with AtPYR1. Type of experiment: biochemical. The method, then: (§1) His-tagged receptors and phosphatases were purified using nickel–nitrilotriacetic acid (Ni-NTA) affinity chromatography. Protein integrity was analyzed by SDS–polyacrylamide gel electrophoresis, followed by InstantBlue staining. Phosphatase activity was measured using p-Nitrophenyl Phosphate (pNPP) (25 mM) as substrate, 10 mM MnCl2,1 μM PP2C, and 2 μM of the indicated receptors. Proteins were incubated with the ligands for 10 min at room temperature. pNPP was then added to start the reactions, and the absorbance at 405 nm was monitored for 20 min in a ViktorX5 plate reader. Assays were repeated twice. For dose-response experiments, IC50 values were obtained with GraphPad Prism 9 using a nonlinear regression curve fit. Each ligand concentration was tested in triplicate. Phosphatase activity of ABI1 was measured using RRA(phosphoT)VA peptide as a substrate, as described ([27]). […]
(§2) (D) Dose response analysis of iSB09 or ABA-dependent inhibition of ABI1 (blue and black lines, respectively) in presence of either AtPYL1 or AtPYR1. Values (average of duplicates) show PP2C activity after incubation with the indicated concentration of ligand and receptor at 1:2 ratio (1 µM phosphatase:2 µM receptor). […]
(§3) whereas with AtPYR1 was 200 nM and 213 nM, for ABA and iSB09, respectively. Ligands were assayed

The target in experiment [5] is AtPYL5:ΔNHAB1 (Arabidopsis thaliana, UniProt Q9FLB1). Kind of experiment: Native red electrophoresis of ligand-induced ternary complex.
AtPYL5:ΔNHAB1, sequence (Q9FLB1 whole entry, stated change not applied): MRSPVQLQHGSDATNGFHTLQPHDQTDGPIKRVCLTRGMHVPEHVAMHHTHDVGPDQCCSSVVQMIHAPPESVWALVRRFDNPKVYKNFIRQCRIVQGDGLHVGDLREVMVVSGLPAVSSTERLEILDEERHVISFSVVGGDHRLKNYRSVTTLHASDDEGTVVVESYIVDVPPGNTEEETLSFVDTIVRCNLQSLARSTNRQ
Description: Electrophoresis was performed at a constant current of 25 mA for 150 min at 4°C. Proteins were detected in gel by InstantBlue staining, and band quantification was performed using the ImageJ software. To obtain apparent Kd values, the proportion of ternary complex formed (fraction bound) and the ABA or iSB09 free concentration in each lane were calculated and plotted as represented in Fig. 3 (E and F). Then, the dose-response curves were fitted to the classical Hill equation using the GraphPad Prism software.
The target of experiment [6] is T2, ABI1 with AtPYL1 (Arabidopsis thaliana, UniProt Q8VZS8).
T2 construct: His; made in house
T2 sequence (Q8VZS8 whole entry): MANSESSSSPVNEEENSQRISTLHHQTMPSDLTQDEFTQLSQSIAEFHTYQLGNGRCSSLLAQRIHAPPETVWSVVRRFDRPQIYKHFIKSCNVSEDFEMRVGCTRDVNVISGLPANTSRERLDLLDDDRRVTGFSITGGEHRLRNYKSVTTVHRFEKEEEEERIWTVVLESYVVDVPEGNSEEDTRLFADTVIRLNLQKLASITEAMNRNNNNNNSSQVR
T2 sequence (P49597 whole entry partner): as the sequence (P49597 whole entry partner) above
The experiment in a line: PP2C inhibition assay, ABI1 with AtPYL1. Type of experiment: biochemical. As for the experimental part:
as §1, §2, §3

The subject of experiment [7] is AtHAB1ΔN with CsPYL1^5m. The experiment in a line: PP2C inhibition assay, HAB1 with CsPYL1^5m. Type of experiment: biochemical, Citrus sinensis (CsPYL1^5m); Arabidopsis thaliana (HAB1). The method, then: His-tagged receptors and phosphatases were purified using nickel–nitrilotriacetic acid (Ni-NTA) affinity chromatography. Protein integrity was analyzed by SDS–polyacrylamide gel electrophoresis, followed by InstantBlue staining. Phosphatase activity was measured using p-Nitrophenyl Phosphate (pNPP) (25 mM) as substrate, 10 mM MnCl2,1 μM PP2C, and 2 μM of the indicated receptors. […] Assays were repeated twice. For dose-response experiments, IC50 values were obtained with GraphPad Prism 9 using a nonlinear regression curve fit. Each ligand concentration was tested in triplicate. Phosphatase activity of ABI1 was measured using RRA(phosphoT)VA peptide as a substrate, as described ([27]).

The test system of experiment [8] is tomato plants. Kind of experiment: IR thermography of leaf temperature, tomato. The experiment is classed as in vivo, Solanum lycopersicum. The conditions noted are these: 10 μM, 2 and 5 days after spraying. As for the experimental part:
For experiments using N. benthamiana or S. lycopersium, 1-month-old plants grown under long-day conditions (16-hour light/8-hour dark) were sprayed with 10 mM MES (pH 5.7) + 0.02% Silwet L77 supplemented with either 50 μM ABA, or the indicated concentration of iSB07/iSB09 or 0.1% DMSO as a mock-treated control. IR images were taken using a FLIR E95 thermocamera 1 day after the treatment (for N. benthamiana) or 2 and 5 days (for S. lycopersicum). Quantification was performed using the FLIR tools software on fully expanded leaves by analyzing 10 sections per leaf. At least six plants per genotype and treatment were analyzed in each experiment. Experiments were repeated twice. The average plant temperature ± SD of all the plants for each treatment and genotype was calculated and used to report the increase in temperature produced by each treatment. Statistical comparisons among genotypes were performed by either pairwise t tests or one-way ANOVA.
(§4) Fig. S6. QB lacks bioactivity in tomato whereas iSB09 is
(§5) (A) Quantification of the leaf temperature difference at 2 and 5 days after spraying tomato plants with 0.1 % DMSO
(§6) (mock- treated control), 10 µM iSB09 or 10 µM QB.
Asterisk indicates p<0.001 (Student’s t test). Values show individual points and average ± SD (n=4 replicates for mock and chemical treatments). (B) IR-images of representative tomato plants at 2 days after being treated with 0.1 % DMSO
Photographs were taken with white light (leaf panel) or infrared thermography (right panel) using the camera FLIR
HAB1 phosphatase activity in presence of PYL4. IC50 values for iSB09 or QB-dependent inhibition of HAB1 by AtPYL4. Values (average of duplicates) show PP2C activity after incubation with the indicated concentration of ligand and AtPYL4 at 1:2 ratio (1 µM phosphatase:2 µM receptor).
(1 picture or pasted object on this page, not shown here)

Experiment [9] has as its target T3, HAB1 with AtPYL4 (Arabidopsis thaliana, UniProt O80920).
T3 construct: His; made in house
The experiment in a line: PP2C inhibition assay, HAB1 with AtPYL4. The conditions noted are these: 1 µM phosphatase:2 µM receptor. Type of experiment: biochemical. The method, then: His-tagged receptors and phosphatases were purified using nickel–nitrilotriacetic acid (Ni-NTA) affinity chromatography. Protein integrity was analyzed by SDS–polyacrylamide gel electrophoresis, followed by InstantBlue staining. Phosphatase activity was measured using p-Nitrophenyl Phosphate (pNPP) (25 mM) as substrate, 10 mM MnCl2,1 μM PP2C, and 2 μM of the indicated receptors. Proteins were incubated with the ligands for 10 min at room temperature. pNPP was then added to start the reactions, and the absorbance at 405 nm was monitored for 20 min in a ViktorX5 plate reader. Assays were repeated twice. For dose-response experiments, IC50 values were obtained with GraphPad Prism 9 using a nonlinear regression curve fit. Each ligand concentration was tested in triplicate. Phosphatase activity of ABI1 was measured using RRA(phosphoT)VA peptide as a substrate, as described ([27]).
as §4, §5, §6
Asterisk indicates p<0.001 (Student’s t test). Values show individual points and average ± SD (n=4 replicates for mock and chemical treatments). (B) IR-images of representative tomato plants at 2 days after being treated with 0.1 % DMSO […]

Experiment [10] deals with T4, ΔNHAB1 with AtPYL1 (Arabidopsis thaliana, UniProt Q8VZS8).
T4 construct: His; made in house
T4 sequence (Q8VZS8 whole entry, stated change not applied): as the sequence (Q8VZS8 whole entry) above
The conditions noted are these: AtPYL1 ref 45; cited from earlier work.

Experiment [11] deals with T5, ΔNHAB1 with AtPYL10 (Arabidopsis thaliana, UniProt Q8H1R0).
T5 construct: His; made in house
T5 sequence (Q8H1R0 whole entry, stated change not applied): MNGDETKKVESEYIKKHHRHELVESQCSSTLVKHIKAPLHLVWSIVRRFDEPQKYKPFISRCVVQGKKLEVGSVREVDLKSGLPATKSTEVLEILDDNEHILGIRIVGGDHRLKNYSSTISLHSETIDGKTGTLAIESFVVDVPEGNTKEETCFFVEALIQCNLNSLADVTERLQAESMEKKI
The settings on record: AtPYL10 ref 45; cited from earlier work.

The subject of experiment [12] is MAPKKK18 promoter-LUC reporter. Kind of experiment: pMAPKKK18-LUC luciferase reporter assay. The experiment is classed as in vivo, Arabidopsis thaliana. The settings on record: 100 μM, 6 hours. The method, then: […]18-LUC seedlings were grown in 24-well plates (25 to 35 seeds per well) filled with 1 ml of liquid MS medium for 7 days. MS medium was replaced with fresh medium supplemented with 100 μM D-luciferin, potassium salt (GoldBio), and the indicated treatments with iSB07, iSB09, or ABA. Seedlings were incubated for 6 hours, and luminescence was recorded with a LAS-3000 imager (Fujifilm) equipped with a charge-coupled device camera using 2-min exposures. Eight-bit images were transformed in rainbow false color and quantified using Fiji. The experiment was repeated at least twice.

The test system of experiment [13] is Arabidopsis thaliana plants. Kind of experiment: IR thermography of leaf temperature, arabidopsis. The conditions noted are these: transgenic CsPYL1^5m lines and Col-0, 50 μM, 24 hours after spraying. The experiment is classed as in vivo. As for the experimental part: A. thaliana plants were grown in a controlled environment growth chamber at 21°/19°C under 8-hour light/16-hour dark photoperiod at 100 μE m^−2 s^−1. IR thermography images of rosette leaves were acquired with a thermal camera FLIR E95 equipped with a 42° lens, 24 hours after spraying 6-week-old plants with 10 mM MES (pH 5.7) + 0.02% Silwet L-77 plus 50 μM ligand or 0.1% DMSO as a control. Images were processed and quantified with the FLIR tools software. The average temperature of 15 different sections taken from four to six leaves per plant was used for quantification. At least six plants per genotype were analyzed, and the experiments were repeated twice. Statistical analysis was performed using GraphPad Prism 9. T test or ANOVA analysis was carried out to identify statistical significance among datasets.

Experiment [14] concerns Arabidopsis thaliana plants (WT Col-0, CsPYL1^5m lines). Kind of experiment: Whole-plant gas exchange, stomatal conductance (Gs). Type of experiment: in vivo. The method, then: A. thaliana seeds were planted in specific gas exchange pots, where above- and below-ground parts can be separated by glass into 2:1 (v:v) peat:vermiculite mixture. The plants were grown in growth chambers (Snijders Scientific, Drogenbos, Belgium) at 12/12 photoperiod, 23/18°C temperature, 160 μmol m^−2 s^−1 light, and 70% relative humidity and were 23 to 28 days old during gas exchange experiments. Whole-rosette stomatal conductances were recorded with an eight-chamber custom-built temperature-controlled gas exchange device as described before ([72]). Plants were inserted into the measurement cuvettes and allowed to stabilize at standard conditions: ambient CO2, ~420 ppm; air temperature, 24° ± 0.5°C; light, 160 μmol m^−2 s^−1; relative air humidity, 66 ± 3%. For sprayings, plants were removed from gas exchange cuvettes, sprayed with respective solutions, and put back into the cuvettes for stomatal conductance recordings for 56 min. To check the long-term effect of compounds on plants, stomatal conductance measurements were performed about 24 and 48 hours after sprayings. In the meantime, plants were kept in growth chambers as described above. Photographs of plants were taken after the experiment, and leaf rosette area was calculated using ImageJ 1.37v [National Institutes of Health (NIH), USA]. Stomatal conductance for water vapor was calculated with a custom-written program as described ([72]).

The subject of experiment [15] is Arabidopsis thaliana seedlings. The experiment in a line: Root growth assay. The experiment is classed as in vivo. The settings on record: 10 μM. The method, then:
Seedlings were grown on vertically oriented Murashige and Skoog (MS) plates for 4 to 5 days. Afterward, seedlings were transferred to MS supplemented with the indicated concentrations of the different ligands and kept on vertical orientation. Ten days later, the plates were scanned on a flatbed scanner to produce image files suitable for quantitative analysis of root growth using the NIH Image software ImageJ. The experiment was performed in triplicate (n = 13 to 16). Statistical comparisons were performed by either pairwise t tests or one-way ANOVA using GraphPad Prism 9.

T3 sequence (Q9CAJ0 179-511): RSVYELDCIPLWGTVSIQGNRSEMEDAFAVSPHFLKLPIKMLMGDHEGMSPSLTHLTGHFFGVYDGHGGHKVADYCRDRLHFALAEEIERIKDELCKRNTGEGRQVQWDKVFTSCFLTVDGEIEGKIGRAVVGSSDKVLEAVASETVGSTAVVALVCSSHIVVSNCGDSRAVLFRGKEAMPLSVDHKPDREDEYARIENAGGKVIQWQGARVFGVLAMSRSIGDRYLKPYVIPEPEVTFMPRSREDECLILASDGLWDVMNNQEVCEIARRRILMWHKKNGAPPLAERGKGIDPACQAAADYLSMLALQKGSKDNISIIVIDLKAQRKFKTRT
T3 sequence (O80920 whole entry): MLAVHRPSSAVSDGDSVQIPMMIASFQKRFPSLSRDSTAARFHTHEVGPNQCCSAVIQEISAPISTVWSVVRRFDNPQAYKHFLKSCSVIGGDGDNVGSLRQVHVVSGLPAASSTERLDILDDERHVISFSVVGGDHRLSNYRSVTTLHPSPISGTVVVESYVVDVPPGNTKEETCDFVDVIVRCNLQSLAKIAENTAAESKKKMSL

In the case of `CCCN1C(=O)CCc2cc(NS(=O)(=O)Cc3c(F)c(F)c(C)c(F)c3F)ccc21` [AMF4], the “effect in pyr1 pyl1 double mutant” value in [1] is “lack effect”.
Take `CC1=CC(=O)CC(C)(C)[C@@]1(O)/C=C/C(C)=C\C(=O)O` [ABA, abscisic acid, reference compound]: the IC50 was 216 nM in [2] (read-out: Germination IC50, WT Col-0); 304 nM in [2] (read-out: Germination IC50, line expressing CsPYL1); 458 nM in [2] (read-out: Germination IC50, line expressing CsPYL1^5m); 200 nM in experiment [4]; 274 nM in experiment [6]. Also, in [3], the “leaf temperature by thermal imaging” value was “increased leaf temperature”. In experiment [5], this molecule registered a Kd of 2100 nM. In experiment [7], the “IC50 of ABA for CsPYL1^5m compared to WT CsPYL1” value is recorded as “fourfold increase”.
In the case of `CCCN1C(=O)CCc2cc(NS(=O)(=O)Cc3ccc(C)cc3)ccc21` [QB, quinabactin], the “bioactivity in tomato (leaf temperature)” value in experiment [8] is listed as “lacked bioactivity”. In experiment [9], this molecule showed an IC50 of 1880 nM. Moreover, the receptor activation result in experiment [10] was “activates AtPYL1”; in experiment [11], “not AtPYL10”. Moreover, the “effect in pyr1 pyl1 double mutant” value in experiment [1] is given as “lack effect”.
With `Cc1cc(=O)n(C)c2ccc(CNS(=O)(=O)c3ccccc3)cc12` [iSB07], in experiment [12], the “induction of LUC relative to iSB09” value is “approximately fivefold lower”. Besides, the IC50 was 12700 nM in [2] (WT Col-0, read-out: Germination IC50); 4030 nM in experiment [2] (line expressing CsPYL1, read-out: Germination IC50); 943 nM in experiment [2] (line expressing CsPYL1^5m, read-out: Germination IC50). In addition, the “leaf temperature by thermal imaging” value in experiment [3] and in [13] was “increased leaf temperature” in each case. In addition, the “reduction of stomatal conductance (Gs)” value in experiment [14] (WT, spraying with 20 μM) was “not effective”. Also, the “reduction of Gs 24 and 48 hours after spraying” value in experiment [14] (transgenic lines, 5 μM) is “nonsignificant”. Further, the “inhibition of root growth” value in [15] (CsPYL1^5m lines) is on record as “marked inhibition”; in experiment [15] (WT plants), “did not significantly inhibit”.

The IC50 is the midpoint of a concentration-inhibition curve. For orientation: Kd means the concentration at which binding is half-saturated. A higher Kd goes with weaker binding.

Values taken from article PMC10005185, “Structure-guided engineering of a receptor-agonist pair for inducible activation of the ABA adaptive response to drought” (Science Advances, 2023).
